From patent US5939447A, “Substituted benzopyrans” (SmithKline Beecham Corporation, priority 1998, dated 1999)

What was measured:
[1] = assays predictive of utility in treating asthma
[2] = incubation of pranlukast with liver microsomes from dogs; type: in vitro ADME; conditions: dog liver microsomes
[3] = human radiolabel study of pranlukast (recovery in feces, metabolites in feces and plasma); type: in vivo; conditions: for plasma concentrations of metabolite in humans: human plasma, limited data from the single radiolabelled study
[4] = incubation of pranlukast with liver microsomes from rats or mice; type: in vitro ADME; conditions: rat or mouse liver microsomes; for metabolite formation from pranlukast: high concentrations of pranlukast (50 uM)
[5] = incubation of pranlukast with human liver S9 from donor H51; type: in vitro ADME
Procedure: Samples from the human S9 incubations were received as a 1:1 mixture of incubation media and acetonitrile. In order to reduce the relative organic content to about 25%, the samples were diluted with an equal volume of water prior to HPLC/MS and HPLC/MS/MS analysis. Samples from the microsomal incubations were also received as a 1:1 mixture of incubation media and acetonitrile. The relative organic content was however reduced to about 25% by evaporation following the centrifugation step.
Retention times observed in the ion chromatograms for m/z 498 and 482 (pranlukast) correlate well with those in the radiochromatogram. […] Therefore, in the CID spectra of the two monohydroxylated metabolites and the parent compound, the precursor and fragment ions are all shifted by +2 amu due to the predominance of the [^14 C] label. The observed fragmentation patterns are identical to the standards and confirmed the presence of pranlukast, as well as two monohydroxylated metabolites.

[6] = incubation with human liver microsomes; type: in vitro ADME; conditions: human liver microsomes and NADPH
Procedure: From an evaluation of a battery of human liver microsomes, it was evident that some human livers have enhanced activity towards benzylic hydroxylation. It appears that benzylic and aryl hydroxylation are performed by different P450 enzymes but which enzyme(s) is currently not known.
Preparation of Formula (I) Using Human Hepatic Microsomes:
The incubations were performed with a final volume of 100 mL in a shaking water bath at a temperature of approximately 37° C. Each incubation contained approximately 400 ug/mL of microsomal protein (H51), 0.5 mL 2 mM pranlukast in a 16% w/v encapsin solution containing 1.5% w/v sodium bicarbonate. The incubation volume was adjusted to 75 mL with 50 mM potassium phosphate buffer (pH 7.4). Following a 5 minute pre-incubation at approximately 37° C., the reaction was initiated by the addition of 25 mL of pre-warmed cofactor solution (approximately 1.7 mg NADP, 7.8 mg glucose 6-phosphate and 6 units of glucose 6-phosphate dehydrogenase per mL of 2% (w/v) sodium hydrogen carbonate). […] The putative benzyl hydroxy metabolite was subsequently isolated and analysed as described below. […]
The incubation was performed with a final volume of […] in a shaking water bath at a temperature of approximately 37° C. […] The putative dihydroxymetabolite formed was subsequently analysed and isolated as described below.

absorption ([3]; human)	route of metabolism in humans ([3]; human, benzylic hydroxylation)	dose excreted ([3]; human, feces, after pranlukast, read-out: administered radiolabel recovered in feces as the named species) [%]	administered radiolabel recovered in feces ([3]; human, total radiolabel after pranlukast) [%]	Structure (SMILES)	activity in assays predictive of utility in treating asthma and other diseases which can be treated by pranlukast [1]	metabolite formation from pranlukast [2]	sulfation in humans ([3]; human)	plasma concentrations of metabolite in humans [3]	plasma concentrations of metabolite in humans ([3]; listed as benzylhydroxy)	metabolite formation from pranlukast [4]	dependence of metabolite formation on NADPH [5]	metabolite formation from pranlukast [5]	metabolite generated in vitro from the 4-hydroxyphenyl pranlukast analog [6]	presence of metabolite in human fecal samples ([3]; human feces)	predominant metabolic pathway [4]
–	–	–	–	O=C(Nc1cccc2c(=O)cc(-c3nnn[nH]3)oc12)c1ccc(OCCCC(O)c2ccccc2)cc1 (centres unmarked) [Formula (I), 4-oxo-8-[4-(4-hydroxy-4-phenylbutoxy)benzoylamino]-2-tetrazol-5-yl-4H-1-benzopyran]	active	only very small amounts	no evidence for sulfation	measurable plasma concentrations in humans	measurable in human plasma	detectable	dependent on the presence of NADPH	major metabolites	–	–	–
–	–	–	–	O=C(Nc1cccc2c(=O)cc(-c3nnn[nH]3)oc12)c1ccc(OCCCC(O)c2ccc(O)cc2)cc1 (centres unmarked) [Formula (II), 4-oxo-8-[4-(4-hydroxy-4-(4-hydroxyphenyl)butoxy)benzoylarnino]-2-tetrazol-5-yl-4H-1-benzopyran]	active	form the arylhydroxy species	appears to be sulfated in humans	measurable in human plasma	–	detectable	–	–	generated in vitro	found in human fecal samples	–
poor absorption	major route of metabolism in humans	~84	98.4	O=C(Nc1cccc2c(=O)cc(-c3nnn[nH]3)oc12)c1ccc(OCCCCc2ccccc2)cc1 [pranlukast, reference compound]	–	–	–	–	–	–	–	–	–	–	hydrolysis of the amide bond in the center of the molecule is the predominant metabolic pathway
